The values that follow come from patent US7829063B2, “Development of molecular imaging probes for carbonic anhydrase-IX using click chemistry” (Siemens Medical Solutions USA, Inc., priority 2007, dated 2010).

For one assay, the target named is T1, CA-IX (Homo sapiens, UniProt Q16790).
T1 construct: His tag (C); purchased R&D Systems Inc. 2188-CA; host or cells: mouse myeloma cell line NS0
Put plainly: CA-IX combinatorial library screening, competitive fluorescence-based assay with dansylamide (DNSA). It is filed as binding. To be noted: 1 h; Table 1, Libraries 1-3; sample concentrations 100 nM and 1000 nM, DNSA 200 μM; screening at 1 μM; read-out: In Vitro Binding Assay (Library Screening). The protocol:
General. CA-IX human recombinant enzyme was expressed with a C-terminal His tag in a mouse myeloma cell line, NS0 (R&D Systems Inc., catalog number 2188-CA). The human red blood cells were obtained from Research Blood Components, LLC. All absorbance measurements were performed on a SPECTRA MAX M2 plate reader at 25° C. The LC/MS analyses were performed on an Agilent 1100 series LC/MSD (SL) using a 30×2.1 mm Zorbax C8 column with a Phenomenex C18 pre-column. Compound detection was accomplished by electrospray mass spectroscopy in positive selected ion mode (LC/MS-SIM). The elution solvents were acetonitrile and water, contained 0.05% TFA. Nuclear magnetic resonance (NMR) spectra were obtained on a Bruker AMX 300 MHz spectrometer or a Varian 400. 19F NMR spectra were recorded on a Bruker AMX 282.35 MHz or a Varian 400 spectrometer. The mass spectra were recorded on an Agilent 1100 series LC/MSD with electrospray mass spectroscopic detection. Flash column chromatography was performed on Merck silica gel (40-63 μm) using the solvent system indicated. The radiochemical and chemical purities were analyzed by RP-HPLC.
General Combinatorial Library Screening Protocol for CA-IX
The CA-IX screening assay was employed for testing libraries derived from the various “anchor” molecules, using ethoxzolamide as a positive control. The assay was performed at a substrate (dansylamide, DNSA) concentration of 200 μM, and sample concentrations of 100 nM and 1000 nM, respectively. A modified competitive fluorescence-based assay (A. Jain, S. G. Huang, G. M. Whitesides, J. Am. Chem. Soc. 1994, 116, 5057) was used to measure CA-IX activity. The enzymatic assay was carried out in a 96-well plate. To the wells, deionized water, 40 μL of phosphate buffer (250 mM, pH 7.4), 2.4 μL of CA-IX (17 μM), and 2 μL or 20 μL of inhibitor (concentration of 100 nM or 1000 nM) were added to achieve a final volume of 180 μL. Reactions were initiated by adding 20 μL DNSA (200 μM) to each well and the plate was incubated at 25° C. for 1 hour. The fluorescence intensities from each well of the plate were then read at 460 nm using a plate reader with an excitation wavelength of 290 nm.
As to `NS(=O)(=O)c1ccc(C(=O)NCc2cn(C3CCN(C(=O)/C=C/c4ccccc4)CC3)nn2)cc1` [DHK97], the inhibition at 1 µM was under 40%.

Turning to `NS(=O)(=O)c1ccc(-c2cn(CC(=O)Nc3nccs3)nn2)cc1` [DHK101], the inhibition at 1 µM was under 40%. Consider `NS(=O)(=O)c1ccc(-c2cn(CCC(=O)Nc3ccccc3)nn2)cc1` [DHK102], for which the inhibition at 1 µM was under 40%.

Turning to `NS(=O)(=O)c1ccc(-c2cn(-c3cccc(C(=O)NN4CCOCC4)c3)nn2)cc1` [DHK104], the inhibition at 1 µM is under 40%. For `NS(=O)(=O)c1ccc(-c2cn(CC(=O)NC(Cc3cnc[nH]3)C(=O)O)nn2)cc1` (stereo not shown) [DHK106], the inhibition at 1 µM was under 40%.

As to `NS(=O)(=O)c1ccc(-c2cn(CC(=O)N3CCN(c4cc(Cl)cc(Cl)c4)CC3)nn2)cc1` [DHK107], the inhibition at 1 µM is under 40%.

For the molecule `NCCCn1cc(-c2ccc(S(N)(=O)=O)cc2)nn1` [DHK108], the inhibition at 1 µM was under 40%. For the molecule `NS(=O)(=O)c1ccc(-c2cn(C3CCN(S(=O)(=O)/C=C/c4ccccc4)CC3)nn2)cc1` [DHK109], the inhibition at 1 µM is under 40%.

As to `CCCCCCCCCCC(C(=O)O)n1cc(CNC(=O)c2ccc(S(N)(=O)=O)cc2)nn1` (stereo not shown) [DHK110], the inhibition at 1 µM is under 40%. Take `NS(=O)(=O)c1ccc(-c2cn(C3C(O)C(O)OC3C(O)CO)nn2)cc1` (stereo not shown) [DHK111]: the inhibition at 1 µM was under 40%. Still for that read-out and setting: the result for `NS(=O)(=O)c1ccc(C(=O)NCc2cn(C3C(O)C(O)OC3C(O)CO)nn2)cc1` (stereo not shown) [DHK112] reads under 40%; that for `NS(=O)(=O)c1nc2ccc(OCc3cn(CCN4CCOCC4)nn3)cc2s1` [DHK114], under 40%. Same read-out and setting: the value for `Cc1ccnc(NC(=O)[C@H](Cc2ccccc2)n2cc(COc3ccc4nc(S(N)(=O)=O)sc4c3)nn2)c1` [DHK115] was under 40%; that for `NS(=O)(=O)c1nc2ccc(OCc3cn(-c4cccc(C(=O)NN5CCOCC5)c4)nn3)cc2s1` [DHK116] was under 40%. In the case of `CC1CCCN(C(=O)C(C(C)C)n2cc(COc3ccc4nc(S(N)(=O)=O)sc4c3)nn2)C1` (stereo not shown) [DHK119], the inhibition at 1 µM is under 40%.

Regarding `Cc1ccc(C)c(CNC(=O)[C@H](Cc2ccccc2)n2cc(COc3ccc4nc(S(N)(=O)=O)sc4c3)nn2)c1` [DHK120], the inhibition at 1 µM was under 40%. With `CC(C)[C@@H](C(=O)NC1CCCCC1)n1cc(COc2ccc3nc(S(N)(=O)=O)sc3c2)nn1` [DHK124], the inhibition at 1 µM is under 40%. For the molecule `CC(C)[C@@H](C(=O)NCc1ccccc1)n1cc(COc2ccc3nc(S(N)(=O)=O)sc3c2)nn1` [DHK126], the inhibition at 1 µM is under 40%. `COC(=O)C(Cc1ccc(C(=O)O)cc1)n1cc(COc2ccc3nc(S(N)(=O)=O)sc3c2)nn1` (stereo not shown) [DHK129]: the inhibition at 1 µM is under 40%. `CCCOC(=O)c1ccc(NC(=O)Cn2cc(COc3ccc4nc(S(N)(=O)=O)sc4c3)nn2)cc1` [DHK130]: the inhibition at 1 µM was under 40%. Still for that read-out and setting: the value for `CC(C)(C)c1cc(C(=O)Cn2cc(COc3ccc4nc(S(N)(=O)=O)sc4c3)nn2)cc(C(C)(C)C)c1O` [DHK132] was under 40%; that for `CC(C)C(C(=O)Nc1ccc(-c2ccccc2)cc1)n1cc(COc2ccc3nc(S(N)(=O)=O)sc3c2)nn1` (stereo not shown) [DHK134] was under 40%. The same measure, in the same setting: the result for `CCCCCC[C@@H](O)[C@@H](O)c1ccc(Cn2cc(COc3ccc4nc(S(N)(=O)=O)sc4c3)nn2)cc1` [DHK135] reads under 40%; that for `NS(=O)(=O)c1nc2ccc(OCc3cn(-c4ccnc5cc(Cl)ccc45)nn3)cc2s1` [DHK136], under 40%; that for `NS(=O)(=O)c1nc2ccc(OCc3cn(CCCCCCO)nn3)cc2s1` [DHK137], under 40%. On the same count and under the same terms, the value for `NS(=O)(=O)c1nc2ccc(OCc3cn(C(c4ccccc4)[C@@H](OC/C=C/c4ccccc4)c4ccccc4)nn3)cc2s1` (stereo partly shown) [DHK138] was under 40%. For the molecule `CC(C)[C@@H](C(=O)NCCc1ccsc1)n1cc(COc2ccc3nc(S(N)(=O)=O)sc3c2)nn1` [DHK139], the inhibition at 1 µM is under 40%.

With `NS(=O)(=O)c1nc2ccc(OCc3cn(CCn4c(=O)[nH]c5ccccc5c4=O)nn3)cc2s1` [DHK140], the inhibition at 1 µM is under 40%. The same measure, in the same setting: the value for `NS(=O)(=O)c1nc2ccc(OCc3cn(CC(=O)N4CCN(c5cc(Cl)cc(Cl)c5)CC4)nn3)cc2s1` [DHK141] was under 40%; that for `NS(=O)(=O)c1nc2ccc(OCc3cn(C4CCN(S(=O)(=O)/C=C/c5ccccc5)CC4)nn3)cc2s1` [DHK143] was under 40%.

For the molecule `NS(=O)(=O)c1nc2ccc(OCc3cn(C4CCN(C(=O)/C=C/c5ccccc5)CC4)nn3)cc2s1` [DHK144], the inhibition at 1 µM was under 40%.

Staying with this assay, now noted: 1 h; Table 2, Libraries 4-7; sample concentrations 100 nM and 1000 nM, DNSA 200 μM; screening at 1 μM; read-out: In Vitro Binding Assay (Library (Screening)).
`CC(C)[C@@H](C(=O)NCc1ccc(F)cc1)n1cc(-c2ccc(S(N)(=O)=O)cc2)nn1` [DHK165]: the inhibition at 1 µM is under 40%. With `CC(C)[C@@H](C(=O)N(C)Cc1ccccc1)n1cc(-c2ccc(S(N)(=O)=O)cc2)nn1` [DHK166], the inhibition at 1 µM was under 40%. For `CC(C)[C@@H](C(=O)NCc1ccc(C(F)(F)F)cc1)n1cc(-c2ccc(S(N)(=O)=O)cc2)nn1` [DHK168], the inhibition at 1 µM is under 40%.

With `CC(C)[C@@H](C(=O)N1CCN(c2ccccn2)CC1)n1cc(-c2ccc(S(N)(=O)=O)cc2)nn1` [DHK174], the inhibition at 1 µM is under 40%. As for `CCOC(=O)[C@@H](Cc1ccccc1)NC(=O)[C@H](C(C)C)n1cc(-c2ccc(S(N)(=O)=O)cc2)nn1` [DHK175], the inhibition at 1 µM is under 40%. Still for that read-out and setting: the result for `CCOC(=O)[C@@H](NC(=O)[C@H](C(C)C)n1cc(-c2ccc(S(N)(=O)=O)cc2)nn1)C(C)C` [DHK176] reads under 40%. On the same count and under the same terms, the value for `COC(=O)[C@H](C)NC(=O)[C@H](C(C)C)n1cc(-c2ccc(S(N)(=O)=O)cc2)nn1` [DHK177] was under 40%; that for `CC(C)[C@@H](C(=O)NCc1ccccn1)n1cc(-c2ccc(S(N)(=O)=O)cc2)nn1` [DHK178] was under 40%. Same read-out and setting: the result for `CC(C)[C@@H](C(=O)NC1CCCCC1)n1cc(-c2ccc(S(N)(=O)=O)cc2)nn1` [DHK179] reads under 40%; that for `CC(C)[C@@H](C(=O)NCC1CC1)n1cc(-c2ccc(S(N)(=O)=O)cc2)nn1` [DHK180], under 40%; that for `CC(C)[C@@H](C(=O)NCCCO)n1cc(-c2ccc(S(N)(=O)=O)cc2)nn1` [DHK181], under 40%. In the case of `Cc1onc(-c2ccccc2)c1CNC(=O)[C@H](C(C)C)n1cc(-c2ccc(S(N)(=O)=O)cc2)nn1` [DHK182], the inhibition at 1 µM was under 40%.

Take `CCOC(=O)CCN(Cc1ccco1)C(=O)[C@H](C(C)C)n1cc(-c2ccc(S(N)(=O)=O)cc2)nn1` [DHK183]: the inhibition at 1 µM is under 40%. For the molecule `CCOC(=O)C1CCN(C(=O)[C@H](C(C)C)n2cc(-c3ccc(S(N)(=O)=O)cc3)nn2)CC1` [DHK184], the inhibition at 1 µM is under 40%. Regarding `CC(C)[C@@H](C(=O)N1CCN(CCO)CC1)n1cc(-c2ccc(S(N)(=O)=O)cc2)nn1` [DHK185], the inhibition at 1 µM was under 40%. Still for that read-out and setting: the value for `CC(C)[C@@H](C(=O)NC1c2ccccc2C[C@@H]1O)n1cc(-c2ccc(S(N)(=O)=O)cc2)nn1` (stereo partly shown) [DHK186] was under 40%.

Regarding `CC(C)[C@@H](C(=O)NCC1COc2ccccc2O1)n1cc(-c2ccc(S(N)(=O)=O)cc2)nn1` (stereo partly shown) [DHK187], the inhibition at 1 µM is under 40%. On the same count and under the same terms, the value for `CC(C)[C@@H](C(=O)N1CCC(N2CCCC2)CC1)n1cc(-c2ccc(S(N)(=O)=O)cc2)nn1` [DHK188] was under 40%.

On to `CC(C)[C@@H](C(=O)NCc1nc2ccccc2n1C)n1cc(-c2ccc(S(N)(=O)=O)cc2)nn1` [DHK189], for which the inhibition at 1 µM is under 40%.

Regarding `CC(C)[C@@H](C(=O)N1CCN(c2ncccn2)CC1)n1cc(-c2ccc(S(N)(=O)=O)cc2)nn1` [DHK190], the inhibition at 1 µM is under 40%.

Turning to `CC(C)[C@@H](C(=O)NCCN1CCN(Cc2ccccc2)CC1)n1cc(-c2ccc(S(N)(=O)=O)cc2)nn1` [DHK191], the inhibition at 1 µM is under 40%. Regarding `NS(=O)(=O)c1ccc(-c2cn([C@@H](Cc3ccccc3)C(=O)NCc3ccc(F)cc3)nn2)cc1` [DHK-2-1], the inhibition at 1 µM is under 40%. For `CN(Cc1ccccc1)C(=O)[C@H](Cc1ccccc1)n1cc(-c2ccc(S(N)(=O)=O)cc2)nn1` [DHK-2-2], the inhibition at 1 µM is under 40%. Regarding `CN(C)Cc1ccc(CSCCNC(=O)[C@H](Cc2ccccc2)n2cc(-c3ccc(S(N)(=O)=O)cc3)nn2)o1` [DHK-2-3], the inhibition at 1 µM was under 40%.
